Results from ChEMBL document CHEMBL1153710, “Synthesis, stereochemistry and antimicrobial studies of novel oxime ethers of aza/diazabicycles” (2009).
Converted amounts (≈) assume the structure as drawn.

Key:
Rhizopus = experiment: Antifungal activity against Rhizopus sp. by twofold serial dilution method; type: functional
Aspergillus flavus = experiment: Antifungal activity against Aspergillus flavus by twofold serial dilution method; type: functional
Candida albicans = experiment: Antifungal activity against Candida albicans by twofold serial dilution method; type: functional
Pseudomonas aeruginosa = experiment: Antibacterial activity against Pseudomonas aeruginosa by twofold serial dilution method; type: functional
Candida = experiment: Antifungal activity against Candida 51 by twofold serial dilution method; type: functional
Aspergillus niger = experiment: Antifungal activity against Aspergillus niger by twofold serial dilution method; type: functional
Klebsiella pneumoniae = experiment: Antibacterial activity against Klebsiella pneumoniae by twofold serial dilution method; type: functional
Staphylococcus aureus = experiment: Antibacterial activity against Staphylococcus aureus by twofold serial dilution method; type: functional
Escherichia coli = experiment: Antibacterial activity against Escherichia coli by twofold serial dilution method; type: functional
Salmonella enterica = experiment: Antibacterial activity against Salmonella typhi by twofold serial dilution method; type: functional, Salmonella enterica subsp. enterica serovar Typhi

SMILES: c1ccc(CON=C2C3C(c4ccccc4)NC(c4ccccc4)C2C(c2ccccc2)NC3c2ccccc2)cc1 (centres undefined)
- MIC (Rhizopus): 200 µg/mL (≈ 364 µM)
- MIC (Aspergillus flavus): 200 µg/mL (≈ 364 µM)
- MIC (Candida albicans): 100 µg/mL (≈ 182 µM)
- MIC (Pseudomonas aeruginosa): 100 µg/mL (≈ 182 µM)
- MIC (Candida): > 200 µg/mL
- MIC (Aspergillus niger): 100 µg/mL (≈ 182 µM)
- MIC (Klebsiella pneumoniae): > 200 µg/mL
- MIC (Staphylococcus aureus): 200 µg/mL (≈ 364 µM)
- MIC (Escherichia coli): 100 µg/mL (≈ 182 µM)

SMILES: Fc1cccc(C2NC(c3cccc(F)c3)C3C(=NOCc4ccccc4)C2C(c2cccc(F)c2)NC3c2cccc(F)c2)c1 (centres undefined)
- MIC (Rhizopus): 50 µg/mL (≈ 80.4 µM)
- MIC (Aspergillus flavus): 25 µg/mL (≈ 40.2 µM)
- MIC (Candida albicans): 25 µg/mL (≈ 40.2 µM)
- MIC (Pseudomonas aeruginosa): 12.5 µg/mL (≈ 20.1 µM)
- MIC (Candida): 50 µg/mL (≈ 80.4 µM)
- MIC (Aspergillus niger): 50 µg/mL (≈ 80.4 µM)
- MIC (Klebsiella pneumoniae): 50 µg/mL (≈ 80.4 µM)
- MIC (Staphylococcus aureus): 12.5 µg/mL (≈ 20.1 µM)
- MIC (Escherichia coli): 25 µg/mL (≈ 40.2 µM)

SMILES: Fc1ccc(C2NC(c3ccc(F)cc3)C3C(=NOCc4ccccc4)C2C(c2ccc(F)cc2)NC3c2ccc(F)cc2)cc1 (centres undefined)
- MIC (Rhizopus): 12.5 µg/mL (≈ 20.1 µM)
- MIC (Aspergillus flavus): 50 µg/mL (≈ 80.4 µM)
- MIC (Candida albicans): 12.5 µg/mL (≈ 20.1 µM)
- MIC (Pseudomonas aeruginosa): 6.25 µg/mL (≈ 10.1 µM)
- MIC (Candida): 25 µg/mL (≈ 40.2 µM)
- MIC (Aspergillus niger): 25 µg/mL (≈ 40.2 µM)
- MIC (Klebsiella pneumoniae): 25 µg/mL (≈ 40.2 µM)
- MIC (Staphylococcus aureus): 12.5 µg/mL (≈ 20.1 µM)
- MIC (Escherichia coli): 12.5 µg/mL (≈ 20.1 µM)

SMILES: Clc1ccc(C2NC(c3ccc(Cl)cc3)C3C(=NOCc4ccccc4)C2C(c2ccc(Cl)cc2)NC3c2ccc(Cl)cc2)cc1 (centres undefined)
- MIC (Rhizopus): 25 µg/mL (≈ 36.4 µM)
- MIC (Aspergillus flavus): 12.5 µg/mL (≈ 18.2 µM)
- MIC (Candida albicans): 12.5 µg/mL (≈ 18.2 µM)
- MIC (Pseudomonas aeruginosa): 6.25 µg/mL (≈ 9.09 µM)
- MIC (Candida): 50 µg/mL (≈ 72.7 µM)
- MIC (Aspergillus niger): 25 µg/mL (≈ 36.4 µM)
- MIC (Klebsiella pneumoniae): 50 µg/mL (≈ 72.7 µM)
- MIC (Staphylococcus aureus): 25 µg/mL (≈ 36.4 µM)
- MIC (Escherichia coli): 50 µg/mL (≈ 72.7 µM)

SMILES: Cc1ccc(C2NC(c3ccc(C)cc3)C3C(=NOCc4ccccc4)C2C(c2ccc(C)cc2)NC3c2ccc(C)cc2)cc1 (centres undefined)
- MIC (Rhizopus): 50 µg/mL (≈ 82.5 µM)
- MIC (Aspergillus flavus): 25 µg/mL (≈ 41.3 µM)
- MIC (Candida albicans): 25 µg/mL (≈ 41.3 µM)
- MIC (Pseudomonas aeruginosa): 6.25 µg/mL (≈ 10.3 µM)
- MIC (Candida): 50 µg/mL (≈ 82.5 µM)
- MIC (Aspergillus niger): 50 µg/mL (≈ 82.5 µM)
- MIC (Klebsiella pneumoniae): 100 µg/mL (≈ 165 µM)
- MIC (Staphylococcus aureus): 25 µg/mL (≈ 41.3 µM)
- MIC (Escherichia coli): 25 µg/mL (≈ 41.3 µM)

SMILES: COc1ccc(C2NC(c3ccc(OC)cc3)C3C(=NOCc4ccccc4)C2C(c2ccc(OC)cc2)NC3c2ccc(OC)cc2)cc1 (centres undefined)
- MIC (Rhizopus): 50 µg/mL (≈ 74.6 µM)
- MIC (Aspergillus flavus): 50 µg/mL (≈ 74.6 µM)
- MIC (Candida albicans): 50 µg/mL (≈ 74.6 µM)
- MIC (Pseudomonas aeruginosa): 12.5 µg/mL (≈ 18.7 µM)
- MIC (Candida): 100 µg/mL (≈ 149 µM)
- MIC (Aspergillus niger): 25 µg/mL (≈ 37.3 µM)
- MIC (Klebsiella pneumoniae): 100 µg/mL (≈ 149 µM)
- MIC (Staphylococcus aureus): 25 µg/mL (≈ 37.3 µM)
- MIC (Escherichia coli): 50 µg/mL (≈ 74.6 µM)

SMILES: CN1C(c2ccc(F)cc2)C2CCCC(C2=NOCc2ccccc2)C1c1ccc(F)cc1 (centres undefined)
- MIC (Rhizopus): 25 µg/mL (≈ 56 µM)
- MIC (Aspergillus flavus): 50 µg/mL (≈ 112 µM)
- MIC (Candida albicans): 12.5 µg/mL (≈ 28 µM)
- MIC (Pseudomonas aeruginosa): 12.5 µg/mL (≈ 28 µM)
- MIC (Candida): 25 µg/mL (≈ 56 µM)
- MIC (Aspergillus niger): 25 µg/mL (≈ 56 µM)
- MIC (Salmonella enterica): 25 µg/mL (≈ 56 µM)
- MIC (Klebsiella pneumoniae): 25 µg/mL (≈ 56 µM)
- MIC (Staphylococcus aureus): 50 µg/mL (≈ 112 µM)
- MIC (Escherichia coli): 12.5 µg/mL (≈ 28 µM)

SMILES: CN1C(c2ccc(Cl)cc2)C2CCCC(C2=NOCc2ccccc2)C1c1ccc(Cl)cc1 (centres undefined)
- MIC (Rhizopus): 12.5 µg/mL (≈ 26.1 µM)
- MIC (Aspergillus flavus): 100 µg/mL (≈ 209 µM)
- MIC (Candida albicans): 25 µg/mL (≈ 52.1 µM)
- MIC (Pseudomonas aeruginosa): 12.5 µg/mL (≈ 26.1 µM)
- MIC (Candida): 12.5 µg/mL (≈ 26.1 µM)
- MIC (Aspergillus niger): 12.5 µg/mL (≈ 26.1 µM)
- MIC (Salmonella enterica): 25 µg/mL (≈ 52.1 µM)
- MIC (Klebsiella pneumoniae): 50 µg/mL (≈ 104 µM)
- MIC (Staphylococcus aureus): 12.5 µg/mL (≈ 26.1 µM)
- MIC (Escherichia coli): 50 µg/mL (≈ 104 µM)

SMILES: COc1ccc(C2C3CCCC(C3=NOCc3ccccc3)C(c3ccc(OC)cc3)N2C)cc1 (centres undefined)
- MIC (Rhizopus): 50 µg/mL (≈ 106 µM)
- MIC (Aspergillus flavus): 100 µg/mL (≈ 212 µM)
- MIC (Candida albicans): 25 µg/mL (≈ 53.1 µM)
- MIC (Pseudomonas aeruginosa): 25 µg/mL (≈ 53.1 µM)
- MIC (Candida): 50 µg/mL (≈ 106 µM)
- MIC (Aspergillus niger): 25 µg/mL (≈ 53.1 µM)
- MIC (Salmonella enterica): 50 µg/mL (≈ 106 µM)
- MIC (Klebsiella pneumoniae): 100 µg/mL (≈ 212 µM)
- MIC (Staphylococcus aureus): 50 µg/mL (≈ 106 µM)
- MIC (Escherichia coli): 25 µg/mL (≈ 53.1 µM)

SMILES: Cc1ccc(C2C3CCCC(C3=NOCc3ccccc3)C(c3ccc(C)cc3)N2C)cc1 (centres undefined)
- MIC (Rhizopus): 50 µg/mL (≈ 114 µM)
- MIC (Aspergillus flavus): 25 µg/mL (≈ 57 µM)
- MIC (Candida albicans): 50 µg/mL (≈ 114 µM)
- MIC (Pseudomonas aeruginosa): 25 µg/mL (≈ 57 µM)
- MIC (Candida): 50 µg/mL (≈ 114 µM)
- MIC (Aspergillus niger): 100 µg/mL (≈ 228 µM)
- MIC (Salmonella enterica): 50 µg/mL (≈ 114 µM)
- MIC (Klebsiella pneumoniae): 100 µg/mL (≈ 228 µM)
- MIC (Staphylococcus aureus): 25 µg/mL (≈ 57 µM)
- MIC (Escherichia coli): 100 µg/mL (≈ 228 µM)
